Source: PMC10249623 (Environmental Science & Technology, 2023)
Like-named read-outs stand apart in the source and are kept apart here. Marks after values point to notes of the source that are not given here.

What was measured:
[1] = Hexadecane/water partition coefficient, shared-headspace method; assay type: physicochemical; details: for log KHxd/w shared-headspace method mean: 25 °C, n = 5
Procedure: The method concept is based on the existing publications that used a shared-headspace system for salting-out experiments[26] and ecotoxicity tests.[27],[28] Hexadecane solution of PFAS was placed in a 350 μL insert hosted by a 1.5 mL GC vial. This small vial was put in a 10 mL headspace vial that contained 1 mL of water. The 10 mL vial was closed with a PTFE-lined septum and gently shaken at 25 °C for 24 h. During this time, the compound dissolved in hexadecane was partially transferred to water via the headspace until a three-phase partition equilibrium was reached between hexadecane, air, and water. Water was then sampled and immediately extracted with n-hexane for GC/MS analysis. The hexadecane phase was also analyzed, which confirmed 85–100% mass conservation (Table S3). KHxd/w was obtained from the measured concentration in water, as in the batch partition method. […] The shared-headspace method is useful for compounds with sufficient volatility (relatively high Kaw, low KHxd/air) and hydrophobicity (relatively high KHxd/w), as these properties ensure an efficient transfer from hexadecane to water via air and negligible concentration depletion in hexadecane. Therefore, nine PFAS that meet this requirement were measured by this method, while all eight sulfonamides and four short-chain FTOHs were not.
SI-1 Extended descriptions for experimental methods
Pure PFAS were dissolved in hexadecane either directly or using acetone as carrier solvent. Up to three PFAS were mixed in hexadecane and investigated simultaneously. The PFAS concentration in hexadecane was 0.1–2000 mg/L, depending on the expected KHxd/w and the sensitivity of the quantification method. The acetone content in hexadecane was up to 0.3% (v/v). This acetone should have largely partitioned into water during the partition experiment, where the final concentration in water was estimated to be < 0.3% (v/v). We assumed that this concentration of acetone in water does not have a significant influence on partition coefficients of PFAS. […]
The water phase was analyzed directly by liquid chromatography/mass spectrometry (LC/MS) (for PFBSA, PFHxSA, MeFBSA, MeFHxSA, MeFBSE), diluted with acetonitrile and analyzed with LC/MS (for PFOSA EtFHxSA, EtFHxSE), or liquid-liquid-extracted with n-hexane and analyzed by gas chromatography/mass spectrometry (GC/MS) (for all others). The hexadecane phase was back-extracted with water (for PFBSA, PFHxSA) or with 0.1 mM NaOH water (for PFOSA) and measured by LC/MS, or it was diluted with n-hexane by a factor of 100–500 and analyzed by GC/MS (for all others). […]
The 95% confidence interval (CI) of the mean (x) was calculated with the formula, x ± 2.78 SD/√5, where SD is the standard deviation, based on the t-distribution and n = 5. […]
PFHxSA, PFOSA, MeFBSA, MeFHxSA, and EtFHxSA were performed using 1 mM HCl aqueous solution […]
A shared headspace method was used to measure KHxd/w for nine PFAS. In this method, hexadecane solution of PFAS was prepared as described above and 300 μL was placed in a 350-μL glass insert

[2] = Air/water partition coefficient via hexadecane/air/water thermodynamic cycle (eq 1); assay type: physicochemical; details: for log Kaw eq 1: 25 °C, KHxd/w divided by KHxd/air
Procedure: The objectives of this study are to obtain new experimental data for Kaw at 25 °C for a series of neutral PFAS and to evaluate Kaw prediction models. […] To circumvent the difficulty associated with direct measurement of Kaw, we determined Kaw indirectly by measuring the hexadecane/water partition coefficient (KHxd/w) and applying the hexadecane/air/water thermodynamic cycle: [drawing 1] 1 where KHxd/air is the hexadecane/air partition coefficient. KHxd/w can be measured more reliably than Kaw because gas phase quantification is not needed and hexadecane has a larger solubilization capacity than water, which minimizes the problem of third-phase sorption. […] The new Kaw data for 21 PFAS were compared to predictions by four models that are often used in environmental risk assessments.

[3] = Hexadecane/water partition coefficient, batch partition method; assay type: physicochemical; details: for log KHxd/w batch partition method mean: 25 °C, n = 5; for log KHxd/w with pure water lower than with 1 mM HCl solution by: preliminary experiments, pure water vs 1 mM HCl
[4] = Direct measurement of Kaw using the standard VPR-HS method; assay type: physicochemical; details: measured by the VPR-HS method in this study, 25 °C
Description: Kaw values for five PFAS were directly measured using a standard VPR-HS method, as in the literature.[7],[8] The experimental procedure is similar to what has been described previously for KHxd/air([21]) and is summarized in SI-3.

[5] = Hexadecane/water partition coefficient, modified VPR-HS method; assay type: physicochemical; details: 25 °C
Procedure: KHxd/w was also measured with a modified version of the VPR-HS method; 20 mL headspace vials were filled with water and hexadecane with different volume ratios. The total liquid volume was always 20 mL. All vials received the same amount of the target compound. After equilibration at 25 °C, the headspace was injected into the GC/MS. […] Here, response linearity as well as no significant mass of the compound in the headspace and any other interface (e.g., vial wall, hexadecane/water interface, septum) was assumed. As α, m, and Vtot (=20 mL) are constant for a given compound, KHxd/w can be fitted on the data of PA vs VHxd. Theoretically, KHxd/w could be determined with a minimum of two VHxd conditions (e.g., 0 and 20 mL), whereas at least four VHxd values were prepared in this work.

[6] = cited from earlier work
[7] = 1 mM HCl was used instead of pure water

SMILES | log KHxd/w shared-headspace method mean [1] | log Kaw eq 1 [2] | log KHxd/w batch partition method mean ([3]; pure water) | also measured
FC(F)(F)C(F)(F)C(F)(F)C(F)(F)CCI [4:2 FTI, 1H,1H,2H,2H-perfluorohexyl iodide] | 4.93 | 1.60 |  | 
CNS(=O)(=O)C(F)(F)C(F)(F)C(F)(F)C(F)(F)F [MeFBSA, N-methyl perfluorobutane sulfonamide] |  | –2.85 |  | log KHxd/w batch partition method mean [3, 7]: 0.82 ^c
OCCC(F)(F)C(F)(F)C(F)(F)C(F)(F)F [4:2 FTOH, 1H,1H,2H,2H-perfluorohexan-1-ol] |  | –1.57 | 0.79 | log Kaw VPR-HS [4]: –1.56; log KHxd/w modified VPR-HS method mean [5]: 0.75; log Kaw VPR-HS or VP/S ([6]; 23 or 24 °C ref 12): −1.52; log Kaw VPR-HS or VP/S ([6]; literature value ref 7): −1.30; log Kaw VPR-HS or VP/S ([6]; literature value ref 8): −1.63; log Kaw VPR-HS or VP/S ([6]; literature value ref 9): −1.21
CCNS(=O)(=O)C(F)(F)C(F)(F)C(F)(F)C(F)(F)C(F)(F)C(F)(F)F [EtFHxSA, N-ethyl perfluorohexane sulfonamide] |  | –1.58 |  | log KHxd/w batch partition method mean [3, 7]: 2.95 ^c
OCCC(F)(F)C(F)(F)C(F)(F)C(F)(F)C(F)(F)C(F)(F)C(F)(F)C(F)(F)F [8:2 FTOH, 1H,1H,2H,2H-perfluorodecan-1-ol] | 3.75 | 0.11 |  | log Kaw VPR-HS or VP/S ([6]; 23 or 24 °C ref 12): 0.96; log Kaw VPR-HS or VP/S ([6]; literature value ref 7): –1.82; log Kaw VPR-HS or VP/S ([6]; literature value ref 8): 0.58; log Kaw VPR-HS or VP/S ([6]; literature value ref 9): 0.31
NS(=O)(=O)C(F)(F)C(F)(F)C(F)(F)C(F)(F)F [PFBSA, perfluorobutane sulfonamide] |  | –4.89 |  | log KHxd/w batch partition method mean [3, 7]: –1.15 ^c; log KHxd/w with pure water lower than with 1 mM HCl solution by [3]: 0.5–0.9 log units
OCC(F)(F)C(F)(F)C(F)(F)F [3:1 FTOH, 1H,1H-perfluorobutan-1-ol] |  |  |  | log Kaw VPR-HS [4]: –2.03 ^d
CNS(=O)(=O)C(F)(F)C(F)(F)C(F)(F)C(F)(F)C(F)(F)C(F)(F)F [MeFHxSA, N-methyl perfluorohexane sulfonamide] |  | –2.01 |  | log KHxd/w batch partition method mean [3, 7]: 2.25 ^c
C=C(C)C(=O)OCCC(F)(F)C(F)(F)C(F)(F)C(F)(F)F [4:2 FTMAC, 1H,1H,2H,2H-perfluorohexyl methacrylate] | 4.65 | 0.62 |  | log Kaw VPR-HS [4]: –0.14 ^d
NS(=O)(=O)C(F)(F)C(F)(F)C(F)(F)C(F)(F)C(F)(F)C(F)(F)C(F)(F)C(F)(F)F [PFOSA, perfluorooctane sulfonamide] |  | –3.04 |  | log KHxd/w batch partition method mean [3, 7]: 1.80 ^c
NS(=O)(=O)C(F)(F)C(F)(F)C(F)(F)C(F)(F)C(F)(F)C(F)(F)F [PFHxSA, perfluorohexane sulfonamide] |  | –3.94 |  | log KHxd/w batch partition method mean [3, 7]: 0.39 ^c; log KHxd/w with pure water lower than with 1 mM HCl solution by [3]: 0.5–0.9 log units
CCN(CCO)S(=O)(=O)C(F)(F)C(F)(F)C(F)(F)C(F)(F)C(F)(F)C(F)(F)F [EtFHxSE, N-ethyl perfluorohexane sulfonamidoethanol] |  | –3.02 | 2.76 | 
FC(F)(F)C(F)(F)C(F)(F)C(F)(F)C(F)(F)C(F)(F)CI [6:1 FTI, 1H,1H-perfluoroheptyl iodide] | 5.66 | 2.28 |  | 
C=CC(=O)OCCC(F)(F)C(F)(F)C(F)(F)C(F)(F)C(F)(F)C(F)(F)F [6:2 FTAC, 1H,1H,2H,2H-perfluorooctyl acrylate] | 5.43 | 1.27 |  | 
CC(O)C(F)(F)C(F)(F)C(F)(F)C(F)(F)C(F)(F)F (stereo not shown) [5:2s FTOH, 1H,1H,1H,2H-perfluoroheptan-2-ol] | 2.04 | –0.15 | 2.00 | log KHxd/w modified VPR-HS method mean [5]: 1.55
OCCCC(F)(F)C(F)(F)C(F)(F)F [3:3 FTOH, 3-(perfluoropropyl)propan-1-ol] |  | –2.17 | 0.52 | log Kaw VPR-HS [4]: –2.04 ^d; log KHxd/w modified VPR-HS method mean [5]: 0.32
FC(F)C(F)(F)C(F)(F)C(F)(F)C(F)(F)C(F)(F)CI [6:1 FTI-7H, 1H,1H,7H-perfluoroheptyl iodide] | 4.62 | 0.70 |  | log KHxd/w lower than that of 6:1 FTI by ([1]; difference to 6:1 FTI): 1.0 log unit; log Kaw lower than that of 6:1 FTI by ([2]; difference to 6:1 FTI): 1.6 log units
OCC(F)(F)C(F)(F)C(F)(F)C(F)(F)C(F)(F)C(F)(F)C(F)(F)F [7:1 FTOH, 1H,1H-perfluorooctan-1-ol] | 2.70 | –0.26 |  | 
OCCC(F)(F)C(F)(F)C(F)(F)C(F)(F)C(F)(F)C(F)(F)F [6:2 FTOH, 1H,1H,2H,2H-perfluorooctan-1-ol] | 2.51 | –0.64 | 2.50 | log Kaw VPR-HS or VP/S ([6]; 23 or 24 °C ref 12): −0.44; log Kaw VPR-HS or VP/S ([6]; literature value ref 7): –1.47; log Kaw VPR-HS or VP/S ([6]; literature value ref 8): −0.56; log Kaw VPR-HS or VP/S ([6]; literature value ref 9): 0.37
OCCCCC(F)(F)C(F)(F)C(F)(F)C(F)(F)F [4:4 FTOH, 4-(perfluorobutyl)butan-1-ol] |  | –1.97 | 1.60 | log Kaw VPR-HS [4]: –1.28 ^d; log KHxd/w modified VPR-HS method mean [5]: 1.43
CN(CCO)S(=O)(=O)C(F)(F)C(F)(F)C(F)(F)C(F)(F)F [MeFBSE, N-methyl perfluorobutane sulfonamidoethanol] |  | –4.35 | 0.49 | 
